Laboratory results published in ChEMBL document CHEMBL1201862, “PubChem BioAssay data set” (2004).
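Dose response: 5 concentrations. Exposure: 48 h. Format: 96-well plates. Endpoint: linear interpolation; highest concentration if not reached. The concentration for 50% growth inhibition is given as GI50.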 Activity calls are given as the source filed them. No stated cut-off is given here; in the data, active = GI50 up to about 1.1 µM and inactive = higher.

Assays:
Assay in all cases: inhibition of tumour cell growth, NCI panel, 48 h
[1] = test system: T47D
[2] = test system: OVCAR-3
[3] = test system: Malme-3M
[4] = test system: HOP-92
[5] = test system: MOLT-4
[6] = test system: MCF7
[7] = test system: SF-295
[8] = test system: MDA-MB-231
[9] = test system: CAKI-1
[10] = test system: SK-MEL-28
[11] = test system: OVCAR-5
[12] = test system: Hs-578T
[13] = test system: ACHN
[14] = test system: M14
[15] = test system: K562
[16] = test system: RXF 393
[17] = test system: NCI/ADR-RES
[18] = test system: OVCAR-8
[19] = test system: 786-0
[20] = test system: HCT-15
[21] = test system: SR
[22] = test system: HOP-62
[23] = test system: IGROV-1
[24] = test system: UACC-257
[25] = test system: UACC-62
[26] = test system: PC-3
[27] = test system: NCI-H460
[28] = test system: NCI-H23
[29] = test system: HT-29
[30] = test system: DU-145
[31] = test system: COLO 205
[32] = test system: UO-31
[33] = test system: SF-268
[34] = test system: SN12C
[35] = test system: A498
[36] = test system: MDA-MB-435
[37] = test system: SK-MEL-2
[38] = test system: U-251
[39] = test system: EKVX
[40] = test system: SF-539
[41] = test system: SNB-75
[42] = test system: OVCAR-4
[43] = test system: SK-MEL-5
[44] = test system: LOX IMVI
[45] = test system: KM12
[46] = test system: RPMI-8226
[47] = test system: A549
[48] = test system: MDA-N
[49] = test system: SW-620
[50] = test system: NCI-H226
[51] = test system: SK-OV-3
[52] = test system: SNB-19
[53] = test system: BT-549
[54] = test system: HL-60
[55] = test system: CCRF-CEM
[56] = test system: NCI-H522
[57] = test system: HCT-116
[58] = test system: TK-10
[59] = test system: HCC 2998

Measured: GI50

O=C(CC(NC(=O)C(F)(F)F)C(=O)O)OCc1ccccc1 (stereo unspecified)
inactive: [1] > 100 µM | [2] > 100 µM | [3] > 100 µM | [4] > 100 µM | [5] > 100 µM | [6] > 100 µM | [7] > 100 µM | [8] > 100 µM | [9] > 100 µM | [10] > 100 µM | [11] > 100 µM | [12] > 100 µM | [13] > 100 µM | [14] > 100 µM | [15] > 100 µM | [16] > 100 µM | [17] > 100 µM | [18] > 100 µM | [19] > 100 µM | [21] > 100 µM | [22] > 100 µM | [23] > 100 µM | [24] > 100 µM | [25] > 100 µM | [26] > 100 µM | [27] > 100 µM | [28] > 100 µM | [29] > 100 µM | [30] > 100 µM | [31] > 100 µM | [32] > 100 µM | [33] > 100 µM | [34] > 100 µM | [35] > 100 µM | [36] > 100 µM | [37] > 100 µM | [38] > 100 µM | [39] > 100 µM | [40] > 100 µM | [41] > 100 µM | [42] > 100 µM | [43] > 100 µM | [44] > 100 µM | [45] > 100 µM | [46] > 100 µM | [47] > 100 µM | [48] > 100 µM | [49] > 100 µM | [50] > 100 µM | [51] > 100 µM | [52] > 100 µM | [53] > 100 µM | [54] > 100 µM | [55] > 100 µM | [56] > 100 µM | [57] > 100 µM | [58] > 100 µM | [59] > 100 µM
> 100 µM: [20]

Nc1c(-c2cccc3ccccc23)c2ccc([N+](=O)[O-])cc2c(=O)n1-c1nc2ccccc2s1
active: [41] 0.875 µM | [46] 1.02 µM
6.38 µM: [20]
inactive: [1] 3.37 µM | [2] 3.94 µM | [3] 3.58 µM | [4] 3.23 µM | [5] 3.03 µM | [6] 1.5 µM | [7] 5.53 µM | [8] 5.37 µM | [9] 5.15 µM | [10] 14.1 µM | [11] 14.3 µM | [12] 2.98 µM | [13] 3.16 µM | [14] 11.7 µM | [15] 6.93 µM | [16] 6.04 µM | [17] 2.26 µM | [18] 2.16 µM | [19] 5.64 µM | [21] 12.5 µM | [22] 7.21 µM | [23] 3.41 µM | [24] 3.41 µM | [25] 5.6 µM | [26] 4.84 µM | [27] 3.1 µM | [28] 2.11 µM | [29] 5.02 µM | [30] 7.57 µM | [31] 18.1 µM | [32] 4.1 µM | [33] 3.18 µM | [34] 6.27 µM | [35] 7.66 µM | [36] 9.38 µM | [37] 3.82 µM | [38] 3.71 µM | [39] 1.94 µM | [40] 2.2 µM | [42] 9.82 µM | [43] 6.73 µM | [44] 4.4 µM | [45] 3.84 µM | [47] 3.32 µM | [48] 7.13 µM | [49] 11.2 µM | [50] 2.41 µM | [51] 2.75 µM | [52] 8.07 µM | [53] 14.3 µM | [54] 2.18 µM | [55] 1.33 µM | [56] 2.22 µM | [57] 5.13 µM | [58] 4.42 µM | [59] 7.14 µM

O=C1OC(=O)C2C1C(c1ccccc1[N+](=O)[O-])C=C(c1ccco1)N2c1ccncc1 (stereo unspecified)
active: [21] 0.679 µM
2.92 µM: [20]
inactive: [1] 4.97 µM | [2] 11.9 µM | [3] 25.1 µM | [4] 3.68 µM | [5] 1.88 µM | [6] 2.1 µM | [7] 10.3 µM | [8] 13 µM | [9] 16 µM | [10] 8.34 µM | [11] 18.2 µM | [12] > 25.9 µM | [13] 1.85 µM | [14] 6.84 µM | [15] 1.35 µM | [16] 4.67 µM | [17] 18.8 µM | [18] 10.7 µM | [19] 1.91 µM | [22] 15.3 µM | [23] 2.09 µM | [24] 2.08 µM | [25] 16.9 µM | [26] 13.3 µM | [27] 12.1 µM | [28] 11.3 µM | [29] 2.57 µM | [30] 7.01 µM | [31] 7.98 µM | [32] 6.01 µM | [33] 10.3 µM | [34] 8.95 µM | [35] 12.2 µM | [36] 8.39 µM | [37] 13.9 µM | [38] 3.94 µM | [39] 15.2 µM | [40] 4.65 µM | [41] 14 µM | [42] 15.2 µM | [43] 4.09 µM | [44] 1.87 µM | [45] 1.98 µM | [46] 1.87 µM | [47] 13.6 µM | [48] 4.52 µM | [49] 6.15 µM | [50] 12.8 µM | [51] 17.6 µM | [52] 8.39 µM | [53] 11.6 µM | [54] 1.77 µM | [55] 2.29 µM | [56] 2.28 µM | [57] 1.83 µM | [58] 3.82 µM | [59] 1.86 µM

N#Cc1c(-c2ccc(Cl)cc2)c2c([nH]c1=O)-c1cc([N+](=O)[O-])ccc1CCC2
inactive: [1] 30.9 µM | [2] 12.8 µM | [3] 25.7 µM | [4] 14.4 µM | [5] 38 µM | [6] 24.9 µM | [7] 11.3 µM | [8] 22.4 µM | [9] 19.9 µM | [10] 21.2 µM | [11] 17.2 µM | [12] 25.2 µM | [13] 25.3 µM | [14] 24.1 µM | [15] 35.4 µM | [16] 16.1 µM | [17] 20.8 µM | [18] 20.5 µM | [19] 25.1 µM | [21] 28.4 µM | [22] 20.3 µM | [23] 21 µM | [24] 21.1 µM | [25] 13.5 µM | [26] 29.4 µM | [27] 14.1 µM | [28] 15.2 µM | [29] 25.4 µM | [30] 35.8 µM | [31] 19.1 µM | [32] 16 µM | [33] 17.3 µM | [34] 17.2 µM | [35] 16.1 µM | [36] 29.9 µM | [37] 18 µM | [38] 17.5 µM | [39] 17.1 µM | [40] 17.9 µM | [41] 23.3 µM | [42] 19.6 µM | [43] 16.6 µM | [44] 17.5 µM | [45] 16.4 µM | [46] 86.7 µM | [47] 18.8 µM | [48] 26.7 µM | [49] 33.2 µM | [50] 17.1 µM | [51] 28.7 µM | [52] 20.5 µM | [53] 15.2 µM | [54] 20 µM | [55] 25.2 µM | [56] 13.3 µM | [57] 14.3 µM | [58] 34.8 µM | [59] 16.9 µM
14.3 µM: [20]
